For this experiment, the target named is T1, MNK.
T1 construct: 10 nM recombinant MNK1 (Life Technologies, PR9138A)
Nature of the experiment: MNK Biochemical Enzymatic Assay (ADP-Glo kinase assay). The conditions noted are these: recombinant MNK1 (300 μM ATP) / MNK2 (10 μM ATP) described; table does not say which isoform; read-out: MNK Biochemical Enzymatic Assay (IC50) Potency. As to the method:
Compounds are screened for MNK inhibition using the ADP-Glo kinase assay kit (Promega, catalogue No. V9101). All kinase reactions are performed in Reaction Buffer E (15 mM HEPES pH7.4, 20 mM NaCl, 1 mM EGTA, 10 mM MgCl2, 0.1 mg/ml BGG, and 0.02% Tween-20). Final MNK1 reactions contained 10 nM recombinant MNK1 (Life Technologies, PR9138A), 100 μM MNK substrate peptide Ac-TATKSGSTTKNR-NH2 (American Peptide Company), 300 μM ATP, and varying concentrations of the inhibitory compound of interest. Final MNK2 reactions contained 3 nM recombinant MNK2 (Life Technologies, PV5607), 50 μM MNK substrate peptide Ac-TATKSGSTTKNR-NH2 (American Peptide Company), 10 μM ATP, and varying concentrations of the inhibitory compound of interest. Final DMSO concentration in each reaction is 1%.
Kinase reactions are carried out in 96-well half-area white flat-bottom polystyrene plates in a final volume of 25 al. MNK1/2 enzymes are pre-incubated with compound and peptide substrate for 5 minutes prior to the addition of ATP. After the addition of ATP, kinase reactions are incubated at room temperature for 40 minutes. Reactions are subsequently stopped by the addition of 25 al of ADP-Glo Reagent and incubating for an additional 40 minutes. The final luminescent signal used for kinase activity readout is produced by the addition of 45 al of Kinase Detection Reagent (ADP-Glo kit, Promega) and incubating for 40 minutes. The luminescent signal is detected using a Victor 2 multilabel counter (Perkin Elmer) and the concentration of compound necessary to achieve inhibition of enzyme activity by 50% (IC50) is calculated using signals from an 8-point compound dilution series.
To this end, IC50 values of less than 1 μM are labeled as “+++”, from 1 to 10 μM are labeled as “++”, and from […] are labeled as “+”.
In general terms: ADP-Glo turns the ADP formed in a reaction into a luminescent signal.

Consider `CC(C)Cc1c(C(N)=O)ccc2c1ccn2-c1ncnc(N)c1Cl` [Compound 8F, 1-(6-amino-5-chloropyrimidin-4-yl)-4-isobutyl-1H-indole-5-carboxamide], for which the IC50 lay in the range of 10 to 100 µM. As to `CC(C)Cc1c(C(N)=O)ccc2c(-c3ncnc(N)c3Cl)cn(C)c12` [Compound 9F, 3-(6-amino-5-chloropyrimidin-4-yl)-7-isobutyl-1-methyl-1H-indole-6-carboxamide], the half-maximal inhibitory concentration (IC50) was under 1 µM. In the case of `CC(C)Cc1c(C(=O)N(C)C)ccc2c1ncn2-c1ncnc(N)c1Cl` [Compound 10F, 1-(6-amino-5-chloropyrimidin-4-yl)-4-isobutyl-N,N-dimethyl-1H-benzo[d]imidazole-5-carboxamide], the IC50 was in the range of 1 to 10 µM. As for `CC(C)Cc1c(C(=O)N(C)C)ccc2c1ncn2-c1cc(N)ncn1` [Compound 11F, 1-(6-aminopyrimidin-4-yl)-4-isobutyl-N,N-dimethyl-1H-benzo[d]imidazole-5-carboxamide], the figure is 1 to 10 µM. As for `CC(C)Cc1c(C(N)=O)ccc2c1cnn2-c1ncnc(N)c1Cl` [Compound 12F, 1-(6-amino-5-chloropyrimidin-4-yl)-4-isobutyl-1H-indazole-5-carboxamide], the figure is 1 to 10 µM.

Take `CC(C)Cc1c(C(N)=O)ccc2c1ncn2-c1ncnc(N)c1Cl` [Compound 13F, 1-(6-amino-5-chloropyrimidin-4-yl)-4-isobutyl-1H-benzo[d]imidazole-5-carboxamide]: the IC50 was in the range of 1 to 10 µM.

A word on the IC50: it is the concentration that gives 50% inhibition.

The values above are taken from patent publication US10793551B2, “Benzimidazole-indole inhibitors of Mnk1 and Mnk2” (eFFECTOR Therapeutics, Inc., priority 2017, dated 2020).
